Series [1] in a line: NMR degradation study of the micelles. The note with it: over 24 h at 37° C., pH 7.4 buffered D2O. The series is classed as physicochemical. As for the experimental part:
16 mg of block copolymer 21 b was fully dissolved in 0.8 mL of DMSO-d6. 0.2 mL of the resulting solution was rapidly injected into 1.0 mL of 100 mM, pH 7.4 phosphate or 100 mM, pH 5.0 citrate buffered D2O. After stirring for 0.5 h, the micelle suspension was transferred into two NMR tubes. One tube was then irradiated for 10 min in with UV light (wavelength: 300-350 nm, 23 mW cm^−2), while the other one was kept in the dark. A ^1H NMR spectrum was obtained immediately following irradiation (10 min time point in the graph), then the samples were incubated at 37° C. and spectra were obtained at regular intervals over 24 h. Complete depolymerization was confirmed for the irradiated sample as the sum of the integration of the methyl peaks corresponding to EtGH and ethanol (1.0-1.2 ppm) plateaud at a very similar (1198) value to that of the methyl peak at 1.17-1.45 ppm in the block copolymer 21b taken in CDCl3 (integration 1152) when setting the PEG peak integral to 364. The % polymer remaining was calculated as 100−(sum of integration from 1.0-1.2 ppm/1198))*100.

A short description of series [2]: Nile red encapsulation and triggered release from micelles. The note with it: dissolved in ethanol, same irradiation periods.
Series [3] in a line: Thermogravimetric analysis (TGA) of polymers. It is filed as physicochemical. An excerpt:
Ethyl glyoxylate in toluene solution (50% w/w), phenyl isocyanate, dibutyltin dilaurate (DBTL), benzyl chloroformate, 4-dimethylaminopyridine (DMAP), 4-bromomethyl-3-nitrobenzoic acid, methanesulfonyl chloride and benzyl bromide were obtained from Alfa Aesar (Canada). Fumaric acid and maleic acid were purchased from Acros Organics (USA). 6-Nitroveratryl chloroformate (NVOC-Cl) was obtained from Chem-Impex International, Inc. (USA). Propargyl amine was purchased from AK Scientific, Inc. (USA). 4-(Hydroxymethyl)phenylboronic acid pinacol ester and hydrogen peroxide solution (50 wt %) in water, hydrazine hydrate, dimethyl sulfide, sodium azide (NaN3), tin (II)chloride dehydrate, phosgene solution (15 wt. % in toluene), nile red and poly(ethylene glycol) methyl ether (MW=5000 g/mol, 2000 g/mol and 750 g/mol) were purchased from Sigma-Aldrich (USA). 1-Ethyl-3-(3-dimethylaminopropyl) carbodiimide hydrochloride (EDC.HCl) was purchased from Creo Salus (USA). Thionyl chloride (Alfa Aesar) was distilled under argon prior to use. Triethylamine (Et3N), pyridine, and dichloromethane were distilled from calcium hydride before use. Anhydrous tetrahydrofuran (THF) and N,N-dimethylformamide (DMF) were obtained from a solvent purification system using aluminum oxide columns. All the other chemicals were of reagent grade and used without further purification. ^1H NMR spectra were obtained in CDCl3 at 400 MHz or 600 MHz on Varian Inova instruments. NMR chemical shifts (δ) are reported in ppm and are calibrated against residual solvent signals of CDCl3 (δ 7.27), acetonitrile-d3 (δ 1.94), DMSO-d6 (δ 2.50) or deuterium oxide (δ 4.75). Fourier transform infrared spectra (FT-IR) were obtained using a Bruker tensor 27 instrument with films drop cast from CH2Cl2 on KBr plates. High-resolution mass spectrometry (HRMS) was performed using a Finnigan MAT 8400 electron impact (EI) mass spectrometer. The SEC instrument was equipped with a Viscotek GPC Max VE2001 solvent module. Samples were analyzed using the Viscotek VE3580 RI detector operating at 30° C. The separation technique employed two Agilent Polypore (300×7.5 mm) columns connected in series and to a Polypore guard column (50×7.5 mm). Samples were dissolved in THF (glass distilled grade) in approximately 5 mg/mL concentrations and filtered through 0.22 μm syringe filters. Samples were injected using a 100 μL loop. The THF eluent was filtered and eluted at 1 ml/min for a total of 30 minutes. A calibration curve was obtained from Polystyrene samples with molecular weight ranges of 1,540-1,126,000/mol Differential scanning calorimetry (DSC) and thermogravimetric analysis (TGA) were performed on a Mettler Toledo DSC 822e. For TGA the heating rate was 10° C./min between 50-400° C. under nitrogen. For DSC, the heating/cooling rate was 10° C./min from −100 to +17° C. Glass transition temperatures were obtained from the second heating cycle. Ultrapure water was obtained from a Barnstead EASYpure II system. Dialyses were performed using Spectra/Por regenerated cellulose membranes with 3500 g/mol MWCO.

From patent publication US10214609B2, “Polyglyoxylates, manufacture and use thereof” (THE UNIVERSITY OF WESTERN ONTARIO, priority 2014, dated 2019) come the findings set out here.

Take `CCOC(=O)C=O.O` [EtGH, ethyl glyoxylate hydrate]: in series [1], the “Hydrolysis to glyoxylic acid and ethanol” value is about 45%.
Turning to `CCN(CC)c1ccc2nc3c4ccccc4c(=O)cc-3oc2c1` [nile red], the “Change of fluorescence intensity on irradiation (photostability)” value in series [2] was “no detectable decrease in intensity”.
Turning to “PEtG-co-poly(methyl glyoxylate) [Polymer 14]”, in series [3], the “To (onset degradation temperature)” value is 181 °C and the “Tp (peak degradation temperature)” value is 203 °C.
For “PEtG-co-poly(n-butyl glyoxylate) [Polymer 15]” the same measures were 208 °C and 236 °C.
The like results for poly(benzyl glyoxylate) [Polymer 13] were, in that order, 195 °C and 229 °C.
